Measured values as given in the METLIN SMRT retention time set (Domingo-Almenara et al. 2019).

Assay: gradient 5% acetonitrile 3 min, to 50% in 2 min, to 85% in 15 min, held 3 min, 100 µL/min
Conditions: column: Zorbax Extend-C18 2.1 x 50 mm; eluents: water / acetonitrile, 0.1% formic acid
How it was run: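 The system's dead and dwell volumes were 40 μL and 900 μL, with a Zorbax Extend-C18 column (2.1 × 50 mm, 1.8 μm) run at 100 μL/min in water and acetonitrile containing 0.1% formic acid each. Pure standards were analyzed in mixtures of ~100 molecules by HPLC–quadrupole time-of-flight mass spectrometry in positive and negative ionization mode. Retention time was assigned from computationally picked, manually inspected adduct peaks.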

RP-LC retention time	SMILES
1180 s	CCOC(=O)c1cnc2c(-c3cccc(Cl)c3)c(C)nn2c1N
926 s	COc1ccc(C2Cn3nnc(C(=O)NCc4cc(OC)ccc4OC)c3CO2)cc1 (stereo unspecified)
668 s	Cc1c(CCC(=O)NCC2CCCO2)c(=O)n2nc(-c3ccccc3)nc2n1C (stereo unspecified)
772 s	CCOC(=O)CNC(=O)NCc1cccn1Cc1ccc(F)cc1
810 s	CC1(C(=O)NCc2ccccc2)Cn2c(ccc2-c2ccco2)C(=O)N1C1CC1 (stereo unspecified)
762 s	Cc1ccccc1CNC(=O)C1CCN(S(=O)(=O)c2cc(C(=O)N(C)C)cs2)CC1
647 s	O=C(C1CC(=O)N(c2ccc3c(c2)CCN3C(=O)C2CC2)C1)N1CCCC1 (stereo unspecified)
757 s	Cc1ccc(S(=O)(=O)N2CCC3(CC2)NCCN=C3NCc2ccc(F)cc2)cc1C
620 s	CCc1nc(N)n(CC(=O)Nc2cc(F)ccc2C)c(=O)c1C
943 s	O=C(NC1CCCCCC1)c1nc(Nc2ccc(F)cc2)c2ccccc2n1
931 s	Cc1ccc(C(=O)N2CCCC(COc3ccc(C(=O)NC(C)C)cc3)C2)cc1C (stereo unspecified)
753 s	CCOCCCNCc1ccc(-c2cc(Cl)ccc2Cl)o1
634 s	CCC(C)Sc1nnc(-c2cn(C)nc2OC)n1CCOC (stereo unspecified)
700 s	CCOC(=O)C1CCN(C(=O)CN2C(=O)COc3ccc(C(=O)N(CC)CC)cc32)CC1
1310 s	Clc1ccc(-c2nnc(-c3cccnc3NCc3cccs3)o2)cc1
1300 s	CCOc1ccc(-n2c(N3CCC(C)CC3)nc3cc(C(=O)OC)ccc3c2=O)cc1
966 s	Cc1ccc(Nc2nc(C(=O)NC3CCCCCC3)nc3ccccc23)cc1
651 s	O=C(Cn1nc2n(c1=O)CCCC2)N1CCN(c2ccc(F)cc2)CC1

RP-LC retention time	SMILES
817 s	COc1ccc(OCc2noc(CNC(=O)c3cc(C)oc3C)n2)cc1
1020 s	Cc1cccc(Nc2c(-c3cc(Br)ccc3O)nc3ncccn23)c1
1190 s	Cn1c(=O)n(C)c2cc(CNc3ccc(O)cc3)ccc21
861 s	COc1ccc(CSc2nnc3c(S(=O)(=O)N4CCCCC4)cccn23)cc1
532 s	CN(C)C[C@@H]1CN(c2ncccn2)C[C@H]1NC(=O)C1(C)CCOCC1
929 s	CC(C)c1ccc(NC(=O)C2CC(=O)N(CCc3c[nH]c4ccc(F)cc34)C2)cc1 (stereo unspecified)
621 s	COc1ccc(-c2nnc(N3CCC(C(=O)NC(C)c4ccccn4)CC3)o2)cc1 (stereo unspecified)
790 s	Cc1noc(C)c1S(=O)(=O)N1CCC(N2CC3(CCCCC3)C2c2ccccc2)CC1 (stereo unspecified)
996 s	O=C(CN1CCCCC1c1nc(-c2cccs2)no1)NCc1cccs1 (stereo unspecified)
611 s	O=C(O)c1cncc(NS(=O)(=O)c2ccc3c(c2)OCCO3)c1
774 s	Cc1ccc(NC(=O)N2CCC(N3CCN(Cc4ccc(F)cc4)C(=O)C3=O)CC2)cc1C
1100 s	Fc1ccc(-c2nnc(Cc3nc(-c4ccc(C(F)(F)F)cc4)no3)o2)cc1
656 s	Cc1cc(C(F)(F)F)nn1CC(=O)N1CCC(n2c(C)cnc2C2CCC2)C1 (stereo unspecified)
1040 s	COc1ccc(C2Cn3nnc(C(=O)NC4CCCCCC4)c3CO2)cc1 (stereo unspecified)
668 s	COc1cccc(S(=O)(=O)N2CCN(c3cc(C)nc(N4CCOCC4)n3)CC2)c1
1070 s	O=c1c2sccc2n(Cc2nc(-c3ccc(Cl)cc3)no2)c(=O)n1-c1cccc(F)c1
820 s	Cc1nn(CC(=O)N2CCc3ccccc3C2)c(=O)c2nn(-c3ccccc3)c(C)c12
850 s	CC1CCCN(C(=O)c2ccc3c(c2)Sc2ncccc2C(=O)N3C(C)C)C1 (stereo unspecified)
